According to PMC7581251 (ACS Omega, 2020):

Legend:
GSK3β [1] = target: T1, GSK3β (Homo sapiens, UniProt P49841); experiment: Promega ADP-Glo kinase assay, GSK3β inhibition; format: biochemical; conditions: for inhibition at 100 µM: read-out: Percent Inhibition of GSK3β, 100 μM, single point, n = 3; for IC50: IC50 GSK3β (ADP-Glo), 10-point three-fold dilution from 100 μM, n = 2; for Hill slope GSK3β (ADP-Glo): four-parameter non-linear regression
GSK3β [2] = target: T1, GSK3β; experiment: Z'LYTE kinase assay; format: biochemical; conditions: for Hill slope GSK3β (Z'LYTE): four-parameter non-linear regression
GSK3α [3] = target: T2, GSK3α (Homo sapiens, UniProt P49840); experiment: Z'LYTE kinase assay; format: biochemical; conditions: for IC50: IC50 GSK3α (Z'LYTE), values of main text and Table S3; for Selectivity GSK3β versus GSK3α: from Z'LYTE IC50 values
T2 sequence (P49840 whole entry): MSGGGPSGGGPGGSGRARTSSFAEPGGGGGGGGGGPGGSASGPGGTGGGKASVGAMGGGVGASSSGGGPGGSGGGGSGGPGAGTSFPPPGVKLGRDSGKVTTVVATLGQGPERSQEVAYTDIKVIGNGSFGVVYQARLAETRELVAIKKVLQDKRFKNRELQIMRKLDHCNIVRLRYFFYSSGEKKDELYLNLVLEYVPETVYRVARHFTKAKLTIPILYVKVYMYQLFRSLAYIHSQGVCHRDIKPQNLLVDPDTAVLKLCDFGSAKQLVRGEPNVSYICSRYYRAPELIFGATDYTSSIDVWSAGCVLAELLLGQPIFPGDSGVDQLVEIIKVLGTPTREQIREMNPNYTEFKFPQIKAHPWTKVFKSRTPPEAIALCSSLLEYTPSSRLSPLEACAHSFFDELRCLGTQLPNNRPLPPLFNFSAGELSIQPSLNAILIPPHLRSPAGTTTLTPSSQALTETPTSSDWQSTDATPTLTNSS

[4] = cohort of diabetic individuals ref 74; cited from earlier work
CYP2D6 = conditions: in vitro ref 75; cited from earlier work
GSK3α [5] = target: T2, GSK3α; conditions: cited from earlier work
GSKβ = conditions: cited from earlier work

T1 sequence (P49841 whole entry): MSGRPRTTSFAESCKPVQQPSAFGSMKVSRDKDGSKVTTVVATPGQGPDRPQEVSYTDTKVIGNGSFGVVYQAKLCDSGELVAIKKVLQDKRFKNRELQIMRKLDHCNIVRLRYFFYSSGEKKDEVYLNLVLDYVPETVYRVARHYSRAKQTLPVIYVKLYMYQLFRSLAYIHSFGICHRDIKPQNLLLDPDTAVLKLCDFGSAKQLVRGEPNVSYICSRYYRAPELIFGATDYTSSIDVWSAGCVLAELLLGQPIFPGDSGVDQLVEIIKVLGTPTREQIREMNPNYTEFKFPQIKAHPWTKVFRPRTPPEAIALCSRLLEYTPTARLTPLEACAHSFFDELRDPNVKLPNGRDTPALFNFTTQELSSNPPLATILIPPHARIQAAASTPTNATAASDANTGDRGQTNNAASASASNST

Row | Compound | inhibition at 100 µM (GSK3β [1]) [%] | IC50 (GSK3β [1]) [µM] | Hill slope GSK3β (ADP-Glo) (GSK3β [1]) | IC50 (GSK3β [2]) [µM] | Hill slope GSK3β (Z'LYTE) (GSK3β [2]) | IC50 (GSK3α [3]) [µM] | Selectivity GSK3β versus GSK3α (GSK3α [3]) | Clinical safety [4] | Interaction with CYP2D6 (CYP2D6) | Activity for GSK3α in published kinase screening (GSK3α [5]) | Activity for GSKβ in published kinase screening (GSKβ)
1 | COC(=O)C1=C(C)NC(C)=C(C(=O)OC)C1c1ccccc1[N+](=O)[O-] [Nifedipine] | 69 | – | – | – | – | – | – | – | – | – | –
2 | c1ccc2[nH]c(-c3cscn3)nc2c1 [Thiabendazole] | > 70 | 12.1 | −0.68 | 54.8 | 1.10 | 60.8 | non-selective | – | – | – | –
3 | CC(=O)Nc1ncc([N+](=O)[O-])s1 [Nithiamide] | > 70 | 8.5 | −0.80 | 5 | 1.26 | 4.4 | non-selective | – | – | – | –
4 | CN(C)C[C@@H]1CCn2cc(c3ccccc32)C2=C(C(=O)NC2=O)c2cn(c3ccccc23)CCO1 [Ruboxistaurin] | 96 | – | −0.68 | – | 0.98 | – | – | safe up to 32 mg/day for 4 years | potent interactions | micromolar activity | micromolar activity
